In patent US5028626A, “Peptides with pharmaceutical activity” (Zambon Group S.p.A., priority 1988, dated 1991):
Where a name gives a salt, the structure may show the parent alone.

Assays:
[1] = biological target: T1, purified aminopeptidase obtained from hog kidney (leucineaminopeptidase) (Sus scrofa, UniProt P28839); test: Inhibitory effect on leucineaminopeptidase activity (L-leucinamide hydrolysis, absorbance at 238 nm); assay type: biochemical; conditions: leucineamide 50 mM, tris-HCl pH 8.5, MgCl2 5 mM, 25° C., read-out: IC50 (concentration of the compound inducing a 50% decrease of the enzymatic activity)
T1 construct: a purified aminopeptidase obtained from hog kidney; purchased Baehringer (so in the source); host or cells: hog kidney tissue
T1 sequence (P28839 1-519): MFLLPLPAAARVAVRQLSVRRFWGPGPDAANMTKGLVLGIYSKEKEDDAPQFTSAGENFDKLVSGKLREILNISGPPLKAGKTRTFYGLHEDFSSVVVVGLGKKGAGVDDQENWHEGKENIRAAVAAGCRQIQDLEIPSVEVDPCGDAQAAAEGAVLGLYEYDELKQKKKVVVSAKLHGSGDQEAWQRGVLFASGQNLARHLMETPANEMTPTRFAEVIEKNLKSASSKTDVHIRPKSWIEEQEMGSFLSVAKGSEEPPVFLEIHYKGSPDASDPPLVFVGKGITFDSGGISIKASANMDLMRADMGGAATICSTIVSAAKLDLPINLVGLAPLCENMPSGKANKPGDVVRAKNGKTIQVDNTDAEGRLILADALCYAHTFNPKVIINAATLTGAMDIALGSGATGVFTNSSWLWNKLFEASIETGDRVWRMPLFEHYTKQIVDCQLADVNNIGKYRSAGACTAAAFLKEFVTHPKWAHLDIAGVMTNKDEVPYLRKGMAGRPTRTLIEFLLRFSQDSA
From the text: (§1) The activity of the compounds of formula I has been evaluated as inhibitory effect on the activity of leucineaminopeptidase and as stimulating effect on the mitogenetic activity of mouse splenic lymphocytes.
The inhibitory effect of the tested compounds has been evaluated on a purified aminopeptidase obtained from hog kidney (Baehringer, 100U/mg).
The enzymatic activity was estimated spectrophotometrically by using L-leucinamide as substrate and by measuring the hydrolysis of the peptide bond as decrease of absorbance at 238 nm.
The enzyme was activated prior to assay at 37° C. for 2 hours, in the presence of MgCl2 1 mM and tris-HCl buffer 20 mM pH 8.5 in a total volume of 2.5 ml.
The enzymatic reaction was followed at 238 nm for at least 30 minutes at 25° C. in 2.5 ml of an incubation medium containing 50 μg of enzyme, leucineamide 50 mM, tris-HCl buffer 20 mM pH 8.5 and MgCl2 5 mM in the absence or in the presence of increasing concentrations of the tested compound.
The inhibitory effect was expressed as the concentration of the compound inducing a 50% decrease of the enzymatic activity (IC50, nmoles/1).

[2] = test system: mouse splenic lymphocytes; test: Immunostimulating (mitogenetic) activity: 3H-timidine incorporation in mouse splenic lymphocytes; assay type: cell-based, mouse (C3H/H2); conditions: compound at 1 μM; 48 h + 24 h incubation with 3H-TMD
Experimental: as §1
The immunostimulating activity has been evaluated as ability to stimulate the incorporation of ^3 H-timidine (^3 H-TMD) in a culture of mouse splenic lymphocytes.
The splenic cells were drawn form C3H/H2 mice (age: 6-8 weeks) and suspended in RPMI-1640 medium containing HEPES 20 mM and 10% bovine fetal serum (inactivated to heat) at the concentration of 5×10^6 cells/ml.
Cells were sowed of Microtest plates (Falcon 3072) in the absence and in the presence of different concentrations of the compounds of formula I in a volume of 0.2 ml of medium.
After an incubation period of 48 hours at 37° C. in humidified environment at 5% CO2 /O2, 0.5 microCi of ^3 H-TMD (specific activity 2 Ci/mmoles) were added and the incubation was protracted for further 24 hours.
Cells were collected by filtration (Tretertek Cell Harnester) and the incorporated radioactivity was measured by Packard TRI-CARB 4530 scintillator.
The mitogenetic effect was expressed as percentage increase in the incorporation of ^3 H-TMD in lymphocytes incubated with the compounds of formula I at the concentration of 1 μM with respect to the basal incorporation value.

| IC50 [1] | SMILES | percentage increase in the incorporation of 3H-TMD in lymphocytes with respect to the basal incorporation value [2] |
| --- | --- | --- |
| 10 nM | CC(C)C[C@H](NC(=O)[C@@H](O)[C@H](N)Cc1ccc(S(C)(=O)=O)cc1)C(=O)O [Example 3, N-[(2S,3R)-3-amino-2-hydroxy-4-(4-methylsulfonylphenyl)-butanoyl]-L-leucine] | – |
| – | CC(C)C[C@H](NC(=O)[C@H](O)[C@@H](N)Cc1ccc(S(C)(=O)=O)cc1)C(=O)O [Example 4, N-[(2R,3S)-3-amino-2-hydroxy-4-(4-methylsulfonylphenyl)-butanoyl]-L-leucine] | 109% |
| 11 nM | CSc1ccc(C[C@@H](N)[C@H](O)C(=O)N[C@@H](CC(C)C)C(=O)O)cc1 [Example 11, N-[(2S,3R)-3-amino-2-hydroxy-4-(4-methylthiophenyl)-butanoyl]-L-leucine hydrobromide] | – |
